This note sets out measurements from ChEMBL document CHEMBL3046162, “Design, synthesis and evaluation of aminobenzophenone derivatives containing nitrogen mustard moiety as potential central nervous system antitumor agent” (Med Chem Res, 2013).

≈ marks a conversion by molar mass, not a printed value.

For data set [1], the system named is COLO 205. The data set can be described thus: Cytotoxicity against human COLO205 cells after 72 hrs by MTT assay. In kind it is functional, cell-based. To be noted: COLO 205, 72 h. Background: Tetrazolium assays rely on reduction of a dye to a coloured formazan, in cell work by metabolically active cells.
The nature of data set [2]: Cytotoxicity against human U87 cells after 72 hrs by MTT assay. In kind it is functional, cell-based, U-87MG ATCC. Particulars: U-87 MG.
Data set [3] in a line: Alkylating activity of the compound in aqueous acetone solution assessed as half life of compound-NBP adduct formation after 30 mins by UV-Vis spectrophotometric analysis. To be noted: buffer, 0.5 h. The class given is physicochemical.
In data set [4] the test system is IMR-32. Briefly: Cytotoxicity against human IMR32 cells after 72 hrs by MTT assay. The class given is functional, cell-based. Particulars: IMR-32, 72 h.
Data set [5] has as its system A549. The data set can be described thus: Cytotoxicity against human A549 cells after 72 hrs by MTT assay. Particulars: A549, 72 h. In kind it is functional, cell-based.

For `O=C(CN(CCCl)CCCl)Nc1ccc(Cl)cc1C(=O)c1ccccc1`, the IC50 turned out to be 52.3 µg/mL (≈ 126 µM) in data set [1], 29 µg/mL (≈ 70.1 µM) in data set [2], 29.4 µg/mL (≈ 71 µM) in data set [4] and 37.1 µg/mL (≈ 89.7 µM) in data set [5]. Besides, the t1/2 in data set [3] is 13.3 min.
As for `O=C(CN(CCCl)CCCl)Nc1ccc(Cl)cc1C(=O)c1ccccc1Cl`, the IC50 amounted to 32.6 µg/mL (≈ 72.7 µM) in data set [1], 24.5 µg/mL (≈ 54.7 µM) in data set [2], 30.8 µg/mL (≈ 68.8 µM) in data set [4] and 34.6 µg/mL (≈ 77.3 µM) in data set [5]. Further, in data set [3], the t1/2 was 10.3 min.
For `O=C(CN(CCCl)CCCl)Nc1ccc(Cl)cc1C(=O)c1ccc(Cl)cc1`, the IC50 in data set [1] came out at 28.7 µg/mL (≈ 64 µM); in data set [2], 27.1 µg/mL (≈ 60.5 µM); in data set [4], 31.1 µg/mL (≈ 69.5 µM); in data set [5] it was 37.3 µg/mL (≈ 83.3 µM). Further, the t1/2 in data set [3] was 8.9 min.
On to `O=C(CN(CCCl)CCCl)Nc1ccc([N+](=O)[O-])cc1C(=O)c1ccccc1`, for which the concentration for half-maximal inhibition (IC50) in data set [1] worked out at 32.9 µg/mL (≈ 77.5 µM); in data set [2], 29.5 µg/mL (≈ 69.4 µM); in data set [4], 33.2 µg/mL (≈ 78.2 µM); in data set [5], 64.8 µg/mL (≈ 153 µM). The t1/2 in data set [3] was determined as 11.8 min.
The like results for `O=C(CN(CCCl)CCCl)Nc1ccc([N+](=O)[O-])cc1C(=O)c1ccccc1Cl` were, in that order, 33.4 µg/mL (≈ 72.8 µM), 43.7 µg/mL (≈ 95.4 µM), 31.4 µg/mL (≈ 68.4 µM), 64.8 µg/mL (≈ 141 µM) and 9.5 min.
On the same counts, the results for `O=C(CN(CCCl)CCCl)Nc1ccc([N+](=O)[O-])cc1C(=O)c1ccc(Cl)cc1` are 38.9 µg/mL (≈ 84.9 µM), 23.3 µg/mL (≈ 50.7 µM), 28.4 µg/mL (≈ 61.9 µM), 36.7 µg/mL (≈ 79.9 µM) and 8.4 min.
Regarding `O=C(O)CCCc1ccc(N(CCCl)CCCl)cc1` [CHLORAMBUCIL], the half-maximal inhibitory concentration (IC50) in data set [1] is 26.7 µg/mL (≈ 87.7 µM); in data set [2], 18.8 µg/mL (≈ 61.9 µM); in data set [4] it was 20.1 µg/mL (≈ 66 µM); in data set [5], 21.1 µg/mL (≈ 69.3 µM).
Take `CC(=O)O[C@@]12CO[C@@H]1C[C@H](O)[C@@]1(C)C(=O)[C@H](O)C3=C(C)[C@@H](OC(=O)[C@H](O)[C@@H](NC(=O)OC(C)(C)C)c4ccccc4)C[C@@](O)([C@@H](OC(=O)c4ccccc4)[C@H]21)C3(C)C.O.O.O` [DOCETAXEL]: the IC50 in data set [1] came to 30.7 µg/mL; in data set [2] it was 20.7 µg/mL; in data set [4], 23.7 µg/mL; in data set [5] it was 27.3 µg/mL.

The term IC50 denotes the midpoint of a concentration-inhibition curve. Low values mean greater potency in that assay, high ones weaker potency in that assay.
